Source: patent US20220281848A1, “PYRAZOLE-SUBSTITUTED PYRROLIDINONES AS HERBICIDES” (FMC Corporation, priority 2019, published 2022)

System: plants
Experiment: Test D post-emergence, other plants of Tables D2 and D4
Format: in vivo
Conditions: post-emergence
Method in brief: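 Seeds treated with herbicide safener; sown in soil; glasshouse, 16 h light, 65% humidity. Sprayed day 1 (pre) or ~day 12 (post). Spray in 0.2% v/v adjuvant. Scored 0–100 damage: 20 DAA pre, 15 d post.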

`CCn1nc([C@H]2CN(C)C(=O)[C@@H]2C(=O)Nc2cccc(F)c2F)c2c(F)cccc21` [Compound 7] was tested, and the “damage to plant (100=total damage to plant; 0=no damage to plant), ABUTH” value (rate 130, evaluated after 15 d) was 0, the “damage to plant (100=total damage to plant; 0=no damage to plant), ABUTH” value (rate 250, evaluated after 15 d) was 10 and the “damage to plant (100=total damage to plant; 0=no damage to plant), ABUTH” value (rate 500, evaluated after 15 d) was 20. For the same compound, the “damage to plant (100=total damage to plant; 0=no damage to plant), AMARE” value (rate 130, evaluated after 15 d) was 0, the “damage to plant (100=total damage to plant; 0=no damage to plant), AMARE” value (rate 250, evaluated after 15 d) was 0 and the “damage to plant (100=total damage to plant; 0=no damage to plant), AMARE” value (rate 500, evaluated after 15 d) was 10. For the same compound, the “damage to plant (100=total damage to plant; 0=no damage to plant), BIDPI” value (rate 130, evaluated after 15 d) was 0, the “damage to plant (100=total damage to plant; 0=no damage to plant), BIDPI” value (rate 250, evaluated after 15 d) was 0 and the “damage to plant (100=total damage to plant; 0=no damage to plant), BIDPI” value (rate 500, evaluated after 15 d) was 0. The “damage to plant (100=total damage to plant; 0=no damage to plant), BRAPL” value (rate 130, evaluated after 15 d) was 0, the “damage to plant (100=total damage to plant; 0=no damage to plant), BRAPL” value (rate 250, evaluated after 15 d) was 80 and the “damage to plant (100=total damage to plant; 0=no damage to plant), BRAPL” value (rate 500, evaluated after 15 d) was 80. For the same compound, the “damage to plant (100=total damage to plant; 0=no damage to plant), CYPES” value (rate 130, evaluated after 15 d) was 0, the “damage to plant (100=total damage to plant; 0=no damage to plant), CYPES” value (rate 250, evaluated after 15 d) was 0 and the “damage to plant (100=total damage to plant; 0=no damage to plant), CYPES” value (rate 500, evaluated after 15 d) was 0. For the same compound, the “damage to plant (100=total damage to plant; 0=no damage to plant), DIGSA” value (rate 130, evaluated after 15 d) was 0, the “damage to plant (100=total damage to plant; 0=no damage to plant), DIGSA” value (rate 250, evaluated after 15 d) was 80 and the “damage to plant (100=total damage to plant; 0=no damage to plant), DIGSA” value (rate 500, evaluated after 15 d) was 80. For the same compound, the “damage to plant (100=total damage to plant; 0=no damage to plant), ECHCG” value (rate 130, evaluated after 15 d) was 20, the “damage to plant (100=total damage to plant; 0=no damage to plant), ECHCG” value (rate 250, evaluated after 15 d) was 70 and the “damage to plant (100=total damage to plant; 0=no damage to plant), ECHCG” value (rate 500, evaluated after 15 d) was 70. The “damage to plant (100=total damage to plant; 0=no damage to plant), EPHHL” value (rate 130, evaluated after 15 d) was 0, the “damage to plant (100=total damage to plant; 0=no damage to plant), EPHHL” value (rate 250, evaluated after 15 d) was 20 and the “damage to plant (100=total damage to plant; 0=no damage to plant), EPHHL” value (rate 500, evaluated after 15 d) was 40. The “damage to plant (100=total damage to plant; 0=no damage to plant), GLXMA” value (rate 130, evaluated after 15 d) was 0, the “damage to plant (100=total damage to plant; 0=no damage to plant), GLXMA” value (rate 250, evaluated after 15 d) was 0 and the “damage to plant (100=total damage to plant; 0=no damage to plant), GLXMA” value (rate 500, evaluated after 15 d) was 0. The “damage to plant (100=total damage to plant; 0=no damage to plant), IPOHE” value (rate 130, evaluated after 15 d) was 0, the “damage to plant (100=total damage to plant; 0=no damage to plant), IPOHE” value (rate 250, evaluated after 15 d) was 0 and the “damage to plant (100=total damage to plant; 0=no damage to plant), IPOHE” value (rate 500, evaluated after 15 d) was 0. The “damage to plant (100=total damage to plant; 0=no damage to plant), ORYSA” value (rate 130, evaluated after 15 d) was 0, the “damage to plant (100=total damage to plant; 0=no damage to plant), ORYSA” value (rate 250, evaluated after 15 d) was 0 and the “damage to plant (100=total damage to plant; 0=no damage to plant), ORYSA” value (rate 500, evaluated after 15 d) was 0. The “damage to plant (100=total damage to plant; 0=no damage to plant), PANMI” value (rate 130, evaluated after 15 d) was 0, the “damage to plant (100=total damage to plant; 0=no damage to plant), PANMI” value (rate 250, evaluated after 15 d) was 0 and the “damage to plant (100=total damage to plant; 0=no damage to plant), PANMI” value (rate 500, evaluated after 15 d) was 0. The “damage to plant (100=total damage to plant; 0=no damage to plant), SETFA” value (rate 130, evaluated after 15 d) was 0, the “damage to plant (100=total damage to plant; 0=no damage to plant), SETFA” value (rate 250, evaluated after 15 d) was 70 and the “damage to plant (100=total damage to plant; 0=no damage to plant), SETFA” value (rate 500, evaluated after 15 d) was 70. For the same compound, the “damage to plant (100=total damage to plant; 0=no damage to plant), SIDSP” value (SIDSP, rate 500, evaluated after 15 d) was 30, the “damage to plant (100=total damage to plant; 0=no damage to plant), SORVU” value (rate 130, evaluated after 15 d) was 0 and the “damage to plant (100=total damage to plant; 0=no damage to plant), SORVU” value (rate 250, evaluated after 15 d) was 0. For the same compound, the “damage to plant (100=total damage to plant; 0=no damage to plant), SORVU” value (rate 500, evaluated after 15 d) was 60.
